In brackets after ≈: the same amount, converted by molar mass.

The test system of assay [1] is Rhizoctonia solani. Description: Antifungal activity against Rhizoctonia solani. It is filed as functional, organism-based.
Assay [2] concerns Spodoptera littoralis. Description: Insecticidal activity against third instar larvae of topically treated Spodoptera littoralis assessed per larva after 24 hr. It is filed as functional.
Assay [3] concerns Spodoptera littoralis. Description: Antifeedant activity against third instar larvae of Spodoptera littoralis fed on compound-treated cotton leaf disks assessed as antifeedant index at 100 ug/ml measured after 24 hr by no-choice leaf disc method. It is filed as functional.
In assay [4] the test system is Spodoptera littoralis. The experiment in a line: Antifeedant activity against third instar larvae of Spodoptera littoralis fed on compound-treated cotton leaf disks assessed as antifeedant index at 50 ug/ml measured after 24 hr by no-choice leaf disc method. It is filed as functional.
The test system of assay [5] is Spodoptera littoralis. Description: Antifeedant activity against third instar larvae of Spodoptera littoralis fed on compound-treated cotton leaf disks assessed as antifeedant index at 10 ug/ml measured after 24 hr by no-choice leaf disc method. Type of assay: functional.
For another assay, the system named is Fusarium oxysporum. Description: Antifungal activity against Fusarium oxysporum by radial growth inhibition method. Type of assay: functional, organism-based.
The subject of assay [6] is Globisporangium debaryanum. Description: Antifungal activity against Pythium debaryanum by radial growth inhibition method. It is filed as functional, organism-based.
In the next assay the test system is Botrytis fabae. The experiment in a line: Antifungal activity against Botrytis fabae by radial growth inhibition method. It is filed as functional, organism-based.
Assay [7] relates to Rhizoctonia solani. Description: Antifungal activity against Rhizoctonia solani by radial growth inhibition method. Type of assay: functional, organism-based.
In assay [8] the test system is Spodoptera littoralis. Description: Antifeedant activity against third instar larvae of Spodoptera littoralis fed on compound-treated castor bean leaf disks measured after 24 hr by no-choice leaf disc method.
Assay [9] concerns Spodoptera littoralis. The experiment in a line: Antifeedant activity against third instar larvae of Spodoptera littoralis fed on compound-treated castor bean leaf disks assessed as antifeedant index at 500 ug/ml measured after 24 hr by no-choice leaf disc method.
The test system of assay [10] is Spodoptera littoralis. The experiment in a line: Antifeedant activity against third instar larvae of Spodoptera littoralis fed on compound-treated castor bean leaf disks assessed as antifeedant index at 1000 ug/ml measured after 24 hr by no-choice leaf disc method.

The term EC50 denotes the concentration needed to bring the measured effect to its halfway point. A high value points to a need for much substance. `CC1(C)C2CCC1(C)C(O)C2` (stereo not drawn) [BORNEOL]: it took 447 µg/mL (≈ 2900 µM) to reach a half-maximal effect in the assay with Rhizoctonia solani [1] (EC50).
Compound `CC12CCC(CC1=O)C2(C)C` (stereo not drawn) [CAMPHOR] came in with a 50% effective concentration (EC50) with Rhizoctonia solani [1] of 488 µg/mL (≈ 3210 µM). This EC50 and that of the compound before are within 1.5-fold of each other.
Same read-out and setting: with `Cc1ccc(C(C)C)cc1O` [CARVACROL] the figure was 41 µg/mL (≈ 273 µM); with `C=C(C)C1CC=C(C)[C@@H](O)C1` (stereo partly drawn) [CARVEOL], 92 µg/mL (≈ 604 µM).
In the assay with Spodoptera littoralis [2], `CCOP(=S)(OCC)Oc1nc(Cl)c(Cl)cc1Cl` [CHLORPYRIFOS] returned an LD50 of 0.12 µg.
In the assay on Rhizoctonia solani [1], `O=C/C=C/c1ccccc1` [CINNAMALDEHYDE] showed an EC50 of 169 µg/mL (≈ 1280 µM).
As to `COc1cc(/C=C\C(=O)O[C@@H]2[C@@H](O[C@@H]3C[C@H](OC)[C@H](OC)[C@@H](O)/C3=C/C#N)O[C@@H](CO)[C@H](O)[C@H]2O)ccc1O` [SIMMONDSIN 2'-FERULATE], the AFI was determined as 60.9% in the assay on Spodoptera littoralis [3]; 44.2% with Spodoptera littoralis [4]; 32.3% in the assay on Spodoptera littoralis [5]; 76.9% with Spodoptera littoralis [9]; 90% with Spodoptera littoralis [10]. In the assay with Spodoptera littoralis [2], this compound had an LD50 of 2.58 µg. Moreover, the EC50 in the assay with Fusarium oxysporum was found to be 293 µg/mL (≈ 532 µM); in assay [6], 154 µg/mL (≈ 279 µM); with Botrytis fabae it was 146 µg/mL (≈ 265 µM); with Rhizoctonia solani [7], 146 µg/mL (≈ 265 µM). Besides, in the assay with Spodoptera littoralis [8], the Activity entry is “Dose-dependent effect”.
Regarding `CO[C@H]1[C@@H](OC)C[C@@H](O[C@H]2O[C@@H](CO)[C@H](O)[C@@H](O)[C@@H]2O)/C(=C\C#N)[C@@H]1O` [SIMMONDSIN], the AFI is 63.4% in the assay on Spodoptera littoralis [3]; 46.2% in the assay with Spodoptera littoralis [4]; 38.1% in the assay on Spodoptera littoralis [5]; 78.9% with Spodoptera littoralis [9]; 92.1% in the assay with Spodoptera littoralis [10]. The LD50 in the assay with Spodoptera littoralis [2] is 1.49 µg. Besides, the concentration for a half-maximal effect (EC50) turned out to be 223 µg/mL (≈ 595 µM) in the assay with Fusarium oxysporum, 147 µg/mL (≈ 391 µM) in [6], 116 µg/mL (≈ 310 µM) with Botrytis fabae and 129 µg/mL (≈ 344 µM) in the assay with Rhizoctonia solani [7]. Besides, in the assay on Spodoptera littoralis [8], the Activity result was “Dose-dependent effect”.
Regarding `Cc1ccc(C(C)C)c(O)c1` [THYMOL], it took 4 µg/mL (≈ 26.6 µM) to reach a half-maximal effect with Rhizoctonia solani [1] (EC50).
With `COP(=S)(OC)Oc1c(Cl)cc(C)cc1Cl` [TOLCOFOS-METHYL], the EC50 is 51.3 µg/mL (≈ 170 µM) in the assay on Fusarium oxysporum, 8.9 µg/mL (≈ 29.6 µM) in [6], 21.9 µg/mL (≈ 72.7 µM) in the assay on Botrytis fabae and 5.7 µg/mL (≈ 18.9 µM) in the assay with Rhizoctonia solani [7].

For the origin of these results see ChEMBL document CHEMBL3046351, “Insecticidal, antifeedant and antifungal activities of two glucosides isolated from the seeds of Simmondsia chinensis” (Ind Crops Prod, 2007).
